Experimental data from US9796714B2, “Calcium channel agonists” (University of Pittsburgh—Of the Commonwealth System of …, priority 2013, dated 2017).
Several values for one entry are separate records, joined by “and”; a condition that tells them apart may be missing. Equal entries are not always repeated. Where two headings read alike, the source gives them in different places.

How the values were obtained:
[1] = target: T1, L-type (Cav 1.3) channels (Rattus norvegicus, UniProt P27732); test: L-type Ca2+ channel agonist activity, whole-cell perforated patch clamp in tsA-201 cells; type: cell-based
T1 construct: host or cells: tsA-201
Experimental: For subsequent evaluation of effects on N-, P/Q-, or L-type channels, tsA-201 cells were transiently transfected with Cav2.2, Cav2.1, or Cav1.3, in combination with Cavβ3 and Cavα2β1 (Addgene, Cambridge Mass.) using FuGENE 6 (Life Technologies, Grand Island, N.Y.). All cells were maintained in DMEM supplemented with 10% fetal bovine serum.
Whole-cell patch clamp recordings of calcium current. […] Briefly, the pipette solution consisted of 70 nM Cs2SO4, 60 mM CsCl, 1 mM MgCl2, 10 mM 4-(2-hydroxyethyl)-1-piperazineethanesulfonic acid (HEPES) at pH 7.4. […] Patch pipettes were fabricated from borosilicate glass and pulled to a resistance of about 1 MΩ. Before each experiment, a stock solution consisting of 3 mg amphotericin-B dissolved into 50 μL anhydrous DMSO was made. […] Capacitive currents and passive membrane responses to voltage commands were subtracted from the data. Currents were amplified by an Axopatch 200B amplifier, filtered at 5 KHz, and digitized at 10 KHz for subsequent analysis using pClamp software (Axon Instruments/Molecular Devices; Sunnyvale, Calif.). […] To measure effects on calcium channel tail currents, the tail current integral was measured before and after application of a derivative, with the integral of each trace being normalized to its peak. All experiments were carried out at room temperature (22° C.). […]

cdk2 cyclinA(h) = target: T2, cdk2 cyclinA(h) (Homo sapiens, UniProt P24941); test: Kinase inhibitory activity (EMD Millipore KinaseProfiler), cdk2; type: biochemical
T2 construct: purchased EMD Millipore KinaseProfiler service (Millipore UK Ltd.)
Experimental: (§1) Kinase inhibitory activity. Kinase inhibitory activities were determined using the EMD Millipore KinaseProfiler™ service (Millipore UK Ltd.). Each compound's kinase inhibitory activity was tested at three different concentrations (0.2 μM, 2 μM, and 20 μM) against five different kinases: Cdk1 cyclinB(h), cdk2 cyclinA(h), cdk5 p35(h), mitogen-activated protein kinase (MAPK1(h)) and myosin light-chain kinase (MLCK(h)).
(§2) Statistical Analysis. […] For the dose-response analyses on Ca^2+ current, each concentration of the four different compounds was tested in 3-6 cells. […] All EC50 and IC50 values and their respective errors were determined by performing 100 iterations of a logistic function curve fit.

cdk5 p35(h) = target: T3, cdk5 p35(h) (Homo sapiens, UniProt Q00535); test: Kinase inhibitory activity (EMD Millipore KinaseProfiler), cdk5; type: biochemical; conditions: 20 μM highest concentration used; read-out: Cdk5 EC50/IC50 affinities
T3 construct: purchased EMD Millipore KinaseProfiler service (Millipore UK Ltd.)
Experimental: as §1
(§3) Statistical Analysis. Statistical analysis was performed using either GraphPad Prism 5 (GraphPad Software, Inc.) or Origin 7 (OriginLab) software. For the dose-response analyses on Ca^2+ current, each concentration of the four different compounds was tested in 3-6 cells. […] All EC50 and IC50 values and their respective errors were determined by performing 100 iterations of a logistic function curve fit. Data are presented as mean±s.e.m. unless otherwise noted.

Cdk1 cyclinB(h) = target: T4, Cdk1 cyclinB(h) (Homo sapiens, UniProt P06493); test: Kinase inhibitory activity (EMD Millipore KinaseProfiler), cdk1; type: biochemical; conditions: 20 μM highest concentration used; read-out: Cdk1 EC50/IC50 affinities
T4 construct: purchased EMD Millipore KinaseProfiler service (Millipore UK Ltd.)
Experimental: as §1, §3

[2] = target: T5, mitogen-activated protein kinase (MAPK1(h)) (Homo sapiens, UniProt P27361); test: Kinase inhibitory activity (EMD Millipore KinaseProfiler), MAPK1; type: biochemical; conditions: 20 μM highest concentration used; read-out: MAPK EC50/IC50 affinities
T5 construct: purchased EMD Millipore KinaseProfiler service (Millipore UK Ltd.)
Experimental: as §1, §2

[3] = target: T6, N-type Ca^2+ channel (Cav2.2) (Rattus norvegicus, UniProt Q02294); test: N-type Ca2+ channel agonist activity, whole-cell perforated patch clamp of tail currents in tsA201 cells; type: cell-based
T6 construct: expressed in transfected cells; later also transient transfection
Experimental: (§4) tsA201 cells expressing calcium channels. […] For subsequent evaluation of effects on N-, P/Q-, or L-type channels, tsA-201 cells were transiently transfected with Cav2.2, Cav2.1, or Cav1.3, in combination with Cavβ3 and […] (Addgene, Cambridge Mass.) using FuGENE 6 (Life Technologies, Grand Island, N.Y.). All cells were maintained in DMEM supplemented with 10% fetal bovine serum. For the stable cell line expressing N-type channels, 25 μg/mL zeocin, 5 μg/mL blasticidin, and 25 μg/mL hygromycin were added as selection agents.
(§5) Whole-cell patch clamp recordings of calcium current. […] Briefly, the pipette solution consisted of […] Cs2SO4, 60 mM CsCl, 1 mM MgCl2, 10 mM 4-(2-hydroxyethyl)-1-piperazineethanesulfonic acid (HEPES) at pH 7.4. […] Patch pipettes were fabricated from borosilicate glass and pulled to a resistance of about 1 MΩ. Before each experiment, a stock solution consisting of 3 mg amphotericin-B dissolved into 50 μL anhydrous DMSO was made. […] Capacitive currents and passive membrane responses to voltage commands were subtracted from the data. Currents were amplified by an Axopatch 200B amplifier, filtered at 5 KHz, and digitized at 10 KHz for subsequent analysis using pClamp software (Axon Instruments/Molecular Devices; Sunnyvale, Calif.). […] To measure effects on calcium channel tail currents, the tail current integral was measured before and after application of a derivative, with the integral of each trace being normalized to its peak. All experiments were carried out at room temperature (22° C.). […] All other salts and chemicals were obtained from Sigma-Aldrich chemical company (St. Louis, Mo.).
as §3

[4] = test system: LEMS passive transfer mouse NMJs; test: Intracellular recordings at LEMS passive transfer mouse NMJs, ex vivo ETA nerve-muscle preparation (Example 3)
Experimental: LEMS passive transfer. To test GV-58 in a LEMS model NMJ, an established LEMS passive transfer mouse model was utilized. To perform the passive transfer of LEMS, mice were injected with the serum of patients diagnosed with LEMS. […] Each serum sample was tested for the presence of voltage-gated Ca^2+ channel antibodies using a Ca^2+ channel antibody radioimmune assay (Kronus RIA kit, Star, Id.). Control serum was obtained from the University of Pittsburgh Medical Center blood bank. […]; 25-32 g; Charles River Laboratories) were divided into two groups: one group that received LEMS serum, and a control group that received control serum.
Intracellular recordings at mouse NMJs. […] A thin upper arm muscle, the epitrochleoanconeus (ETA), was chosen for these recordings. […] […]. A train of 10 EPPs was also collected in each muscle fiber using an inter-stimulus interval of 20 msec. To analyze the data, both the amplitudes and the areas under the waveforms (integral) were determined after correcting each digitized point in each trace for non-linear summation. Data were collected and analyzed using an Axoclamp 900A and the pClamp 10 suite of programs (Molecular Devices, Sunnyvale, Calif.).
Statistical Analysis. […] For the dose-response analyses on Ca^2+ current, each concentration of the four different compounds was tested in 3-6 cells. […]. All EC50 and IC50 values and their respective errors were determined by performing 100 iterations of a logistic function curve fit.

[5] = target: T7, P/Q-type channels (Cav 2.1) (Rattus norvegicus, UniProt P54282); test: P/Q-type Ca2+ channel agonist activity, whole-cell perforated patch clamp in tsA-201 cells; type: cell-based
T7 construct: host or cells: tsA-201
Experimental: as §4, §5
Capacitive currents and passive membrane responses to voltage commands were subtracted from the data. […] All experiments were carried out at room temperature (22° C.).

T7 sequence (P54282 whole entry): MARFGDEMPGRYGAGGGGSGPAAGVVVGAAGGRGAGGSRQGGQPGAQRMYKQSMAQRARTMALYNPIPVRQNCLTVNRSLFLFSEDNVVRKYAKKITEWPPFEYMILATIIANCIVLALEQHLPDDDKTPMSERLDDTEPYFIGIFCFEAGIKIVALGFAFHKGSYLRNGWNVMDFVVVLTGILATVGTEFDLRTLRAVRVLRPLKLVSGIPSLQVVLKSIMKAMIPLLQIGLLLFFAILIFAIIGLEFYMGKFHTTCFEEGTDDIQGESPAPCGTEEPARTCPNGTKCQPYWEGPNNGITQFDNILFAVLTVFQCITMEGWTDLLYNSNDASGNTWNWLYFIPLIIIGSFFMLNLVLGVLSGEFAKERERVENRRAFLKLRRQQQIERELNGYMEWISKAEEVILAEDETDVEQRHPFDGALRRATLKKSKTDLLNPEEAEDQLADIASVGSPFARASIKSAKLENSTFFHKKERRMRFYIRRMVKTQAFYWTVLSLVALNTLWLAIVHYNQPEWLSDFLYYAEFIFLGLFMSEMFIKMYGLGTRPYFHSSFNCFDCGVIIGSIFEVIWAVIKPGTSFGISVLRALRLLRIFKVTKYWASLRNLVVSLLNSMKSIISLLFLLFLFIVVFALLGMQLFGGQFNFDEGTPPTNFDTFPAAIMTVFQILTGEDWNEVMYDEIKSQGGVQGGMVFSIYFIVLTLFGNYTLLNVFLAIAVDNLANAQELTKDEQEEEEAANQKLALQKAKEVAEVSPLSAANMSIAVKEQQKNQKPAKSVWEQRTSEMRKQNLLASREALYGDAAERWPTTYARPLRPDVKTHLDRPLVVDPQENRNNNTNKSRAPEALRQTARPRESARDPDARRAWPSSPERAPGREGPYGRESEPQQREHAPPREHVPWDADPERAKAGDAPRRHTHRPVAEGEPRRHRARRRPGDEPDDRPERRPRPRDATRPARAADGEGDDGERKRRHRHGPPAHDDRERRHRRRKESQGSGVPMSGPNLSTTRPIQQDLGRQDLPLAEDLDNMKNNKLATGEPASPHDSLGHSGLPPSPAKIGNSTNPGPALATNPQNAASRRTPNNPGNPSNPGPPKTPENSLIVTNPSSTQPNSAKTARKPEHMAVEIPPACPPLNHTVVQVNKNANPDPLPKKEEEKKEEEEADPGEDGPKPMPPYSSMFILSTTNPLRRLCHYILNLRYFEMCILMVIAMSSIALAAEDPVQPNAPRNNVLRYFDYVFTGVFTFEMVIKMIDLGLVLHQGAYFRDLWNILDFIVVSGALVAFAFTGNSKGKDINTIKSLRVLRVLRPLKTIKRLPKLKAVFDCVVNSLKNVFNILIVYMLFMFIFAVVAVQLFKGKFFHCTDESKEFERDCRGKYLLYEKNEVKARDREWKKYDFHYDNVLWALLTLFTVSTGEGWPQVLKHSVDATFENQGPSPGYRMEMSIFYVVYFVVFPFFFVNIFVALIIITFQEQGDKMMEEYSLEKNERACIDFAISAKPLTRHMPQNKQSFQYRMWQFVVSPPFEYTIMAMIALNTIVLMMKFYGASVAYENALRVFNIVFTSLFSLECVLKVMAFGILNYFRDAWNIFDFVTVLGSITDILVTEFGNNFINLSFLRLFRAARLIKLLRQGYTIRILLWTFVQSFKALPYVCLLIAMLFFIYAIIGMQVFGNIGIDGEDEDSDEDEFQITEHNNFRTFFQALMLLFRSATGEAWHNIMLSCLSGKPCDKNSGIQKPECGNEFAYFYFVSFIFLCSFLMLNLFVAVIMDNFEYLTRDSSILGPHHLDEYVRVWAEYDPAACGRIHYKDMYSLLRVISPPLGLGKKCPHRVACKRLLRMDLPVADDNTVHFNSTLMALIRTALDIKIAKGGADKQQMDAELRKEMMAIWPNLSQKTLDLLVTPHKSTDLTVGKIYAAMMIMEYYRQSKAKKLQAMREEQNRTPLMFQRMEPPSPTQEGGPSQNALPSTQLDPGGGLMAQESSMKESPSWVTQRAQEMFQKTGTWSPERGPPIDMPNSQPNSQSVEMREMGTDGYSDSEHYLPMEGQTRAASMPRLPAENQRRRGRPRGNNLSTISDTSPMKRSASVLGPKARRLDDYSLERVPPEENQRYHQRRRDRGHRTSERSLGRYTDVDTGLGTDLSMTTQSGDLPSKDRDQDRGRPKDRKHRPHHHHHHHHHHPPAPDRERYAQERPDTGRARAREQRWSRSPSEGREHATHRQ
T6 sequence (Q02294 whole entry): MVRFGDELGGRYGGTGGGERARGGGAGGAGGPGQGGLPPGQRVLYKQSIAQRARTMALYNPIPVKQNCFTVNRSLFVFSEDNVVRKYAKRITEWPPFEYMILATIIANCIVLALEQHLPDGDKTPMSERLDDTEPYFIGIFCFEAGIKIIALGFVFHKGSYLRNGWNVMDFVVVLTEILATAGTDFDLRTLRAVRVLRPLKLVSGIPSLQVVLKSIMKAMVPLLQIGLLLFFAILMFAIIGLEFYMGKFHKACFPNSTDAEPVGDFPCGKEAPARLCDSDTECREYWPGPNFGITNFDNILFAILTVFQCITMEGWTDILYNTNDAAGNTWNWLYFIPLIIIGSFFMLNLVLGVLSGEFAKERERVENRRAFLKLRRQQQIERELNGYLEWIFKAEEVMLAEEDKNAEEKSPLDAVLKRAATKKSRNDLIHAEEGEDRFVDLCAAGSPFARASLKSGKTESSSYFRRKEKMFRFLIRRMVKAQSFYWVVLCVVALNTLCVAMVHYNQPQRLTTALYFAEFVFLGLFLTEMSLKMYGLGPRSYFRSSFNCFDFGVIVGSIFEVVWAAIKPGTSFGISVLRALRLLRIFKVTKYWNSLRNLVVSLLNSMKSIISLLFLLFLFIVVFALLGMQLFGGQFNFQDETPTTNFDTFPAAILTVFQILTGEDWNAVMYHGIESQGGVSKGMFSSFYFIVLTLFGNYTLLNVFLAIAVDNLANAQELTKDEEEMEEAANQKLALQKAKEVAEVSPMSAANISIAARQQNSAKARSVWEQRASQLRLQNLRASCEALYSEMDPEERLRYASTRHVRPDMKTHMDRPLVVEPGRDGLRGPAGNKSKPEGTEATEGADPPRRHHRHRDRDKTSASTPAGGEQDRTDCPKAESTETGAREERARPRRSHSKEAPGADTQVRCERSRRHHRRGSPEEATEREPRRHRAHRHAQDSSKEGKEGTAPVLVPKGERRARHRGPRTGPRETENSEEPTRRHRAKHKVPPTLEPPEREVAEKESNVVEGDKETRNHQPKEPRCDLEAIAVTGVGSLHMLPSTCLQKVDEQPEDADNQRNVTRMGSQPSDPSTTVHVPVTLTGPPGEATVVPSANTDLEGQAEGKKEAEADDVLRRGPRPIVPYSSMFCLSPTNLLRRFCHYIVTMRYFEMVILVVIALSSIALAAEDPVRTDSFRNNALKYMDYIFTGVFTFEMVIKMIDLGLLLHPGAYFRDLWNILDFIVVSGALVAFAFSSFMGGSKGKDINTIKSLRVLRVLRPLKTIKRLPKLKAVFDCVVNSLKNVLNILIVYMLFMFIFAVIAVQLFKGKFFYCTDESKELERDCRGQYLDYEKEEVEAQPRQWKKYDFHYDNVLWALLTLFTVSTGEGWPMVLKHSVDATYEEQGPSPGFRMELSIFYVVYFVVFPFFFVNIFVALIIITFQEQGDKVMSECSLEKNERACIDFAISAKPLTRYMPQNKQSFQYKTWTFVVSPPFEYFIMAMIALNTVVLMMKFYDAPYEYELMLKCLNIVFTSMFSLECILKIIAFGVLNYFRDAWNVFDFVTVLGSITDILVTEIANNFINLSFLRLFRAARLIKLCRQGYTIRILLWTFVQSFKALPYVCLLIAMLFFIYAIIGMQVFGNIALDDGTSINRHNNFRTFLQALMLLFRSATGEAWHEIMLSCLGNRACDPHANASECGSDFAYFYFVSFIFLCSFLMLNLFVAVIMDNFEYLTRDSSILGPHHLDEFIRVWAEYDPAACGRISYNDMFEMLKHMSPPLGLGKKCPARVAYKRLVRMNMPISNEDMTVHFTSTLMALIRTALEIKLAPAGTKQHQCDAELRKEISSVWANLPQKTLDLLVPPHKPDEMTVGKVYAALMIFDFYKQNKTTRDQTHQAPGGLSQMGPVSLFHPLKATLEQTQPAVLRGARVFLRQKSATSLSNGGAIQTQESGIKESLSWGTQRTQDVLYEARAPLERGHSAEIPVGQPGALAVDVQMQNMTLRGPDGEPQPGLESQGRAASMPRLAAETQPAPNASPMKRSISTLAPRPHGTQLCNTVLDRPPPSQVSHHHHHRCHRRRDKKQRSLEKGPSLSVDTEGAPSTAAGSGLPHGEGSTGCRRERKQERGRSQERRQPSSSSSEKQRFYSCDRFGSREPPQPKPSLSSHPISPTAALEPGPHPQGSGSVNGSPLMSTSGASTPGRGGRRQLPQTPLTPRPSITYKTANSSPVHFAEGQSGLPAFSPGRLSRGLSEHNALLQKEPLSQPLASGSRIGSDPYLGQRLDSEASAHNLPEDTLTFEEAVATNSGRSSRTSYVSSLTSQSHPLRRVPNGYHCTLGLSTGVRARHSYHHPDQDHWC
T3 sequence (Q00535 whole entry): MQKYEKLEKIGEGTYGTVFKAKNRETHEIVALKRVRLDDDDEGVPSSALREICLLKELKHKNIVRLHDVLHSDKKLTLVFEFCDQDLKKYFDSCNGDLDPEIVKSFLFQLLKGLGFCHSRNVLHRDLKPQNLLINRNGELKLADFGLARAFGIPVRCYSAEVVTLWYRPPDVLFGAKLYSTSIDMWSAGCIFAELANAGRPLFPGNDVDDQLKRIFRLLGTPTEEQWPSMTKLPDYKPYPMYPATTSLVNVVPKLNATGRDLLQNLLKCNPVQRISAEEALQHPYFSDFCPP
T3 sequence (Q15078 whole entry partner): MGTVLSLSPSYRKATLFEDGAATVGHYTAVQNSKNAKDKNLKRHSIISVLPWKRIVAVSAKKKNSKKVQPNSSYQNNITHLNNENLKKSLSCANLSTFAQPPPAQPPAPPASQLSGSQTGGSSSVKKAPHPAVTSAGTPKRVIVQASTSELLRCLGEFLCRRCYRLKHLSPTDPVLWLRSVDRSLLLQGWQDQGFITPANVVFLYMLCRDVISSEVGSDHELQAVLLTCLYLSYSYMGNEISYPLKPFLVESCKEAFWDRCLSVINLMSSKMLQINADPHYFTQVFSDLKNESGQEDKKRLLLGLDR

With `CCCn1cnc2c(NCc3ccc(C)s3)nc(N[C@H](CC)CO)nc21` [Compound 13x, (2R)-2-[(6-{[(5-Methylthiophen-2-yl)methyl]amino}-9-propyl-9H-purin-2-yl)amino]butan-1-ol] as the compound, how does the EC50 ([1]; Cav 1.3, no measureable agonist effect up to 100 μM, read-out: L-type EC50/IC50 affinities) read?
The EC50 was greater than 100 µM.

What about the EC50 ([1]; b265, read-out: agonist effects on L-type calcium channels EC50) of the same compound?
Its EC50 is greater than 100 µM.

And the IC50 (cdk2 cyclinA(h); 20 μM highest concentration used, read-out: Cdk2 EC50/IC50 affinities)?
Its IC50 is 3.29 ± 0.43 µM.

And the EC50 (cdk2 cyclinA(h); determined in duplicate at 0.2, 2, and 20 μM, read-out: Cdk2 Activity EC50 +/− SEM)?
The EC50 was 3 µM.

What about the IC50 (cdk5 p35(h)) of the same compound?
The IC50 was 3.03 ± 0.32 µM.

What about the IC50 (Cdk1 cyclinB(h)) of the same compound?
Its IC50 is 20.6 ± 0.96 µM.

And the IC50 [2]?
The IC50 was greater than 20 µM.

And the “higher affinity for the calcium channel than (R)-roscovitine” value ([3]; FIG. 4C dose response curve)?
The value was 6 fold.

And the “increase in efficacy as an agonist for N- and P/Q-type Ca^2+ channels vs (R)-roscovitine” value ([3]; N- and P/Q-type)?
Its value is roughly 4 fold.

And the “increase in potency as an agonist for N- and P/Q-type Ca^2+ channels vs (R)-roscovitine” value ([3]; N- and P/Q-type)?
Its value is 3-4 fold.

What about the “agonist effect on the Ca^2+ channel tail currents (in words)” value ([3]; N-type) of the same compound?
The value was “strong agonist effect”.

And the “maximal fold increase in the tail current integral relative to control” value ([3]; N-type channels)?
Its value is roughly 32 fold.

What about the EC50 ([3]; Table 3, calcium channel agonist, read-out: N-type EC50/IC50 affinities) of the same compound?
Its EC50 is 7.21 ± 0.86 µM.

And the EC50 ([3]; read-out: 95% confidence interval for the fit (EC50) to N-type channels)?
Its EC50 is 4.6 to 9.8 µM.

And the EC50 ([3]; whole cell perforated patch clamp, deactivation (tail) currents from N-type channels, read-out: N-Type Ca^2+ Channel Activity EC50 +/− SEM)?
Its EC50 is 7.2 µM and 7.21 µM.

What about the “increase of the strength of neuromuscular transmission” value [4] of the same compound?
Its value is “about 50%”.

What about the “EPP 90% to 10% decay time” value ([4]; 50 μM) of the same compound?
The value was 6.79 ± 0.11 ms.

What about the “EPP full width at half maximum (FWHM)” value ([4]; 50 μM) of the same compound?
Its value is 3.90 ± 0.07 ms.

What about the “final EPP in 50 Hz train of 10 stimuli, normalized to the first EPP” value ([4]; 50 μM) of the same compound?
Its value is “about 94%”.

What about the mEPP frequency ([4]; 50 μM) of the same compound?
The mEPP frequency was 10.45 ± 0.64 s⁻¹.

What about the “increase of quantal content when measuring area” value ([4]; 50 μM vs vehicle) of the same compound?
The value was roughly 92%.

And the “increase of quantal content when measuring peak” value ([4]; 50 μM vs vehicle)?
The value was roughly 62%.

And the “mean change in mEPP amplitude” value ([4]; 50 μM, relative to vehicle)?
The value was 1.00±0.02.

What about the EPP amplitude ([4]; aBC2 serum NMJs, 30-minute incubation in 50 μM) of the same compound?
The EPP amplitude was 19.44±0.98 mV.

And the “increase of the tail current integral compared to control” value ([5]; P/Q-type channels)?
The value was roughly 33 fold.

And the EC50 ([5]; b265, read-out: agonist effects on P/Q-type calcium channels EC50)?
Its EC50 is 9.9 µM.

What about the EC50 ([5]; calcium channel agonist, Cav 2.1, read-out: P/Q-type EC50/IC50 affinities) of the same compound?
The EC50 was 8.8 µM and 8.81 µM.

And the EC50 ([5]; read-out: 95% confidence interval for a fit (EC50) to P/Q channels data)?
Its EC50 is 6.7 to 14.5 µM.
